Data taken from patent US11497765B1, “Thioctamer expedites wound healing” (King Abdulaziz University, priority 2022, dated 2022).

How the values were obtained:
[1] = Thioctamer zeta potential and particle size evaluation (Zetasizer Nano ZSP); format: physicochemical
Method: Thioctamer was prepared by conjugation of GA and TA in a 1:1 molar ratio. TA was solvated in deionized water (with added of triethanolamine in a 1:1 molar ratio with the amount of TA). GA was dissolved separately in deionized water. The two aqueous solutions were mixed and then vortexed for 60 sec. The prepared thioctamer was assessed for zeta potential and particle size utilizing a Zetasizer Nano ZSP (Malvern Instruments Ltd., Malvern, UK).

[2] = system: excision wound on dorsal surface of diabetic rats; test: Wound closure in wounded diabetic rats, topical hydrogel treatment; format: in vivo, male Wistar rats; conditions: day 7, topical daily, 1.5% w/v HPMC hydrogel (TA 4.1, GA 12.5, thioctamer 16.6 mg/g gel), mean±SD, n=6
Method: Rats were anesthetized by xylazine and ketamine (10 mg/kg and 100 mg/kg, respectively IP injection). The dorsal surface was shaved, the skin was sterilized by povidone-iodine solution, and an excision circle (1 cm diameter) was made on dorsal surface. After the excision, the wounds were cleaned and dried using sterile saline solution and sterile pads, respectively. Subcutaneous injection of 2% solution of lidocaine hydrochloride having 1:80,000 epinephrine (4.4 mg/kg) was performed near the wound area to reduce pain. […] At days 0, 4, 7, and 10, wounds were photographed and assessed. […]

[3] = system: wound tissues of diabetic rats; test: Histological investigation of wound tissue (H&E, Masson's trichrome); format: in vivo, male Wistar rats; conditions: for Ang = Angio-genesis / CD = Collagen deposition / FP = Fibroblast proliferation / GT = Granulation tissue / IC = Inflammatory cell infiltration / RE = Re-epithelization: day 10 wound healing, topical application, diabetic rats; for healing rate by histology (in words): wound tissues collected on day 10, H&E or Masson's trichrome
Method: Thirty 210-240 g male Wistar rats were provided by KAU's animal facility and were maintained on a 12-hr dark-light cycle at a temperature of 22 ±2° C. […] Induction of diabetes in rats was carried out as formerly described, i.e. prior to the study, rats were intra-peritoneally injected with streptozotocin (50 mg/kg) for two weeks. Go Accu-Chek was utilized for assessing the level of fasting blood glucose (Roche, Mannheim, Germany) Moderate-diabetic rats with level of fasting blood glucose (200-300 mg/100 mL) were chosen for the experiment.
Rats were anesthetized by xylazine and ketamine (10 mg/kg and 100 mg/kg, respectively IP injection). The dorsal surface was shaved, the skin was sterilized by povidone-iodine solution, and an excision circle (1 cm diameter) was made on dorsal surface. After the excision, the wounds were cleaned and dried using sterile saline solution and sterile pads, respectively. Subcutaneous injection of 2% solution of lidocaine hydrochloride having 1:80,000 epinephrine (4.4 mg/kg) was performed near the wound area to reduce pain. […] All treatments were topically applied daily for a total of 10 days. The wounds were wrapped with sterile gauze dressings and changed daily. At days 0, 4, 7, and 10, wounds were photographed and assessed. Animals were sacrificed by beheading at the end of day 10 and the skin of wound area was cut out. From each animal, a part of the obtained skin was retained in 10% neutral formalin, while the other part was preserved at -80° C. for further analyses.
Wound tissues were preserved for 24 h in 10% neutral formalin, then dehydrated using serial concentrations of ethanol, passed through xylene as a clearing agent, and inserted in paraffin. Tissues' paraffin blocks were cut into 5 μm thickness that were rehydrated after dewaxing. Some sections were stained using E&H (eosin and hematoxylin), whereas the remaining were stained with MT (Masson's trichrome). Histological investigation was carried out by a pathologist without prior knowledge of the groups'treatment. On the basis of the abundance/degree of inflammatory cell infiltration, proliferation of fibroblasts, deposition of collagen, angiogenesis, tissue granulation, and re-epithelization, scores were assigned in a range from - to +++.

IL-6 = test: Immunohistochemical assessment of IL-6 expression in wounded skin; format: in vivo, male Wistar rats; conditions: wounded skin of diabetic rats; negative control 0.42±0.044; mean±SD, n=6
Method: (§1) Rats were anesthetized by xylazine and ketamine (10 mg/kg and 100 mg/kg, respectively IP injection). The dorsal surface was shaved, the skin was sterilized by povidone-iodine solution, and an excision circle (1 cm diameter) was made on dorsal surface. After the excision, the wounds were cleaned and dried using sterile saline solution and sterile pads, respectively. Subcutaneous injection of 2% solution of lidocaine hydrochloride having 1:80,000 epinephrine (4.4 mg/kg) was performed near the wound area to reduce pain. […] All treatments were topically applied daily for a total of 10 days. The wounds were wrapped with sterile gauze dressings and changed daily. At days 0, 4, 7, and 10, wounds were photographed and assessed. Animals were sacrificed by beheading at the end of day 10 and the skin of wound area was cut out. […]

TNF-α = test: Immunohistochemical assessment of TNF-α expression in wounded skin; format: in vivo, male Wistar rats; conditions: wounded skin of diabetic rats; negative control 0.47±0.048; mean±SD, n=6
Method: as §1

wound on rat skin = conditions: seventh day after surgery; topical; negative control 43.0±17.4%; cited from earlier work
wounds in diabetic rats = conditions: cited from earlier work

## O=C(O)CCCCC1CCSS1 (centres unmarked) [TA, thioctic acid]
[1]
  zeta potential: -26.6±5.39 mV
[2]
  % wound contraction (healing): 56.5±5.8%
[3]
  Ang = Angio-genesis: +
  CD = Collagen deposition: ++
  FP = Fibroblast proliferation: ++
  GT = Granulation tissue: ++
  IC = Inflammatory cell infiltration: +++
  RE = Re-epithelization: ++
  healing rate by histology (in words): moderate healing rate
IL-6
  IL-6 expression (immunohistochemistry, image analysis): 0.324±0.043
TNF-α
  TNF-α expression (immunohistochemistry, image analysis): 0.374±0.039
Wound on rat skin
  healing rate: 60.7±8.4%
Wounds in diabetic rats
  time to complete wound closure: 8 days

## L-alanine compound with L-tyrosine compound with L-lysine compound with L-glutamic acid acetic acid [GA]
[2]
  % wound contraction (healing): 62.6±7.1%
[3]
  Ang = Angio-genesis: +
  CD = Collagen deposition: ++
  FP = Fibroblast proliferation: ++
  GT = Granulation tissue: ++
  IC = Inflammatory cell infiltration: +++
  RE = Re-epithelization: ++
  healing rate by histology (in words): moderate healing rate
IL-6
  IL-6 expression (immunohistochemistry, image analysis): 0.318±0.033
TNF-α
  TNF-α expression (immunohistochemistry, image analysis): 0.34±0.05
